What all share (assay type): in vivo
For experiment [1], the system named is Alopecurus myosuroides (ALOMY). Put plainly: Example B post-emergence herbicidal activity, glasshouse pot test. The following applies: 312 h, evaluated after 13 days, read-out: Post-emergence activity ALOMY (100=total damage to plant; 0=no damage to plant); for pest or weed control at 250 g/ha: rate 250 g/ha; for pest or weed control at 1000 g/ha: rate 1000 g/ha. As to the method: (§1) Seeds of a variety of test species were sown in standard soil in pots. After cultivation for one day (pre-emergence) or after 8 days cultivation (post-emergence) under controlled conditions in a glasshouse (at 24/16° C., day/night; 14 hours light; 65% humidity), the plants were sprayed with an aqueous spray solution derived from the formulation of the technical active ingredient in acetone/water (50:50) solution containing 0.5% Tween 20 (polyoxyethelyene sorbitan monolaurate, CAS RN 9005-64-5). The test plants were then grown in a glasshouse under controlled conditions in a glasshouse (at 24/16° C., day/night; 14 hours light; 65% humidity) and watered twice daily. After 13 days for pre and post-emergence, the test was evaluated (100=total damage to plant; 0=no damage to plant). Alopecurus myosuroides (ALOMY), Avena fatua (AVEFA), Setaria faberi (SETFA), Echinochloa crus-galli (ECHCG) and Amaranthus retoflexus (AMARE)

Experiment [2] concerns Amaranthus retoflexus (AMARE). The description is as above. The settings on record: Amaranthus retroflexus, 312 h, evaluated after 13 days, read-out: Post-emergence activity AMARE (100=total damage to plant; 0=no damage to plant); for pest or weed control at 250 g/ha: rate 250 g/ha; for pest or weed control at 1000 g/ha: rate 1000 g/ha. How it is done: as §1
For experiment [3], the system named is Avena fatua (AVEFA). Described as above. The settings on record: 312 h, evaluated after 13 days, read-out: Post-emergence activity AVEFA (100=total damage to plant; 0=no damage to plant); for pest or weed control at 250 g/ha: rate 250 g/ha; for pest or weed control at 1000 g/ha: rate 1000 g/ha. How it is done:
as §1

Experiment [4] concerns Echinochloa crus-galli (ECHCG). Described as above. The following applies: 312 h, evaluated after 13 days, read-out: Post-emergence activity ECHCG (100=total damage to plant; 0=no damage to plant); for pest or weed control at 250 g/ha: rate 250 g/ha; for pest or weed control at 1000 g/ha: rate 1000 g/ha. As to the method:
as §1

For experiment [5], the system named is Setaria faberi (SETFA). The description is as above. The settings on record: 312 h, evaluated after 13 days, read-out: Post-emergence activity SETFA (100=total damage to plant; 0=no damage to plant); for pest or weed control at 250 g/ha: rate 250 g/ha; for pest or weed control at 1000 g/ha: rate 1000 g/ha. How it is done:
as §1

The test system of experiment [6] is Alopecurus myosuroides (ALOMY). The experiment in a line: Example B pre-emergence herbicidal activity, glasshouse pot test. The following applies: 312 h, Rate 250 g/ha, evaluated after 13 days, read-out: Pre-Emergence Activity ALOMY (100=total damage to plant; 0=no damage to plant). How it is done: as §1
Experiment [7] has as its system Amaranthus retoflexus (AMARE). The description is as above. The following applies: Amaranthus retroflexus, 312 h, Rate 250 g/ha, evaluated after 13 days, read-out: Pre-Emergence Activity AMARE (100=total damage to plant; 0=no damage to plant). How it is done: as §1
The subject of experiment [8] is Avena fatua (AVEFA). The description is as above. The settings on record: 312 h, Rate 250 g/ha, evaluated after 13 days, read-out: Pre-Emergence Activity AVEFA (100=total damage to plant; 0=no damage to plant). As to the method:
as §1

The test system of experiment [9] is Echinochloa crus-galli (ECHCG). The experiment is described as above. The following applies: 312 h, Rate 250 g/ha, evaluated after 13 days, read-out: Pre-Emergence Activity ECHCG (100=total damage to plant; 0=no damage to plant). As to the method:
as §1

In experiment [10] the test system is Setaria faberi (SETFA). The experiment is described as above. The following applies: 312 h, Rate 250 g/ha, evaluated after 13 days, read-out: Pre-Emergence Activity SETFA (100=total damage to plant; 0=no damage to plant). As to the method: as §1

With `CCc1sc(-c2ccc(Cl)cc2)nc1C1=C(OC(=O)C(C)(C)C)[C@@H]2[C@H](C1=O)[C@H]1CC[C@@H]2O1` (racemic) [Compound P3], the pest or weed control at 250 g/ha in [1] was 100%; in experiment [2] it was 0%; in the experiment with Avena fatua (AVEFA) [3], 100%; in experiment [4], 100%; in the experiment with Setaria faberi (SETFA) [5], 100%.

For `CCc1sc(-c2ccc(Cl)cc2)nc1C1=C(OC(=O)C2CC2)[C@@H]2[C@H](C1=O)[C@H]1CC[C@@H]2O1` (racemic) [Compound P4, cyclopropanecarboxylic acid-4-[2-(4-chloro-phenyl)-5-ethyl-thiazol-4-yl]-5-oxo-10-oxa-tricyclo[5.2.1.0*2,6*]dec-3-en-3-yl ester], the pest or weed control at 250 g/ha in [6] was found to be 60%; in experiment [7], 0%; in the experiment on Avena fatua (AVEFA) [8], 90%; in experiment [9], 90%; in the experiment on Setaria faberi (SETFA) [10], 90%; in experiment [1], 100%. The pest or weed control at 250 g/ha was 0% in experiment [2], 100% in the experiment with Avena fatua (AVEFA) [3], 100% in [4] and 100% with Setaria faberi (SETFA) [5].

In the case of `CC(=O)OC1=C(c2nc(-c3ccc(Br)cn3)sc2C)C(=O)[C@H]2[C@@H]1[C@@H]1CC[C@H]2O1` (racemic) [Compound P5], the pest or weed control at 250 g/ha amounted to 50% in experiment [6]; 0% in experiment [7]; 70% with Avena fatua (AVEFA) [8]; 90% in experiment [9]; 100% with Setaria faberi (SETFA) [10]; 90% in experiment [1]. The pest or weed control at 250 g/ha in experiment [2] came to 0%; in the experiment on Avena fatua (AVEFA) [3], 90%; in experiment [4] it was 100%; in the experiment with Setaria faberi (SETFA) [5] it was 100%.

Turning to `Cc1sc(-c2ccc(Br)cn2)nc1C1=C(OC(=O)C2CC2)[C@@H]2[C@H](C1=O)[C@H]1CC[C@@H]2O1` (racemic) [Compound P6], the pest or weed control at 250 g/ha in experiment [6] worked out at 0%; in experiment [7] it was 0%; in the experiment on Avena fatua (AVEFA) [8] it was 0%; in experiment [9], 20%; with Setaria faberi (SETFA) [10], 70%; in [1] it was 90%. In addition, the pest or weed control at 250 g/ha in [2] is 0%; in the experiment with Avena fatua (AVEFA) [3], 90%; in experiment [4], 100%; in the experiment with Setaria faberi (SETFA) [5] it was 100%.

Take `Cc1cc(Br)ccc1-c1nc(C2=C(OC(=O)C(C)(C)C)[C@@H]3[C@H](C2=O)[C@H]2CC[C@@H]3O2)c(C)s1` (racemic) [Compound P7]: the pest or weed control at 250 g/ha is 100% in experiment [6]; 0% in experiment [7]; 100% with Avena fatua (AVEFA) [8]; 100% in experiment [9]; 100% in the experiment with Setaria faberi (SETFA) [10]; 100% in [1]. Besides, the pest or weed control at 250 g/ha in experiment [2] was 0%; in the experiment with Avena fatua (AVEFA) [3] it was 100%; in [4], 100%; in the experiment with Setaria faberi (SETFA) [5] it was 100%.

Regarding `CCc1sc(-c2ccc(Br)cc2C)nc1C1=C(OC(=O)c2ccc(Cl)cc2)[C@@H]2[C@H](C1=O)[C@H]1CC[C@@H]2O1` (racemic) [Compound P8], the pest or weed control at 250 g/ha in [6] is 90%; in experiment [7], 0%; with Avena fatua (AVEFA) [8], 30%; in experiment [9] it was 100%; with Setaria faberi (SETFA) [10], 100%; in experiment [1] it was 100%. The pest or weed control at 250 g/ha in [2] stood at 0%; in the experiment with Avena fatua (AVEFA) [3], 100%; in [4], 100%; in the experiment on Setaria faberi (SETFA) [5] it was 100%.

In the case of `Cc1sc(-c2ccc(OC(F)F)cc2Cl)nc1C1=C(OC(=O)C(C)(C)C)[C@@H]2[C@H](C1=O)[C@H]1CC[C@@H]2O1` (racemic) [Compound P9], the pest or weed control at 250 g/ha in experiment [6] is 70%; in [7] it was 0%; in the experiment with Avena fatua (AVEFA) [8] it was 50%; in experiment [9], 90%; with Setaria faberi (SETFA) [10], 90%; in experiment [1] it was 100%. Moreover, the pest or weed control at 250 g/ha in experiment [2] was found to be 0%; in the experiment with Avena fatua (AVEFA) [3], 90%; in experiment [4], 100%; in the experiment with Setaria faberi (SETFA) [5], 100%.

On to `CC(=O)OC1=C(c2nc(-c3ccc(OC(F)F)cc3F)sc2C)C(=O)[C@H]2[C@@H]1[C@@H]1CC[C@H]2O1` (racemic) [Compound P10], for which the pest or weed control at 250 g/ha amounted to 90% in experiment [6]; 0% in [7]; 100% in the experiment with Avena fatua (AVEFA) [8]; 100% in [9]; 100% with Setaria faberi (SETFA) [10]; 100% in experiment [1]. Moreover, the pest or weed control at 250 g/ha in experiment [2] came to 20%; in the experiment on Avena fatua (AVEFA) [3] it was 100%; in experiment [4], 100%; with Setaria faberi (SETFA) [5] it was 100%.

Consider `CCc1sc(-c2ccc(Cl)cc2)cc1C1C(=O)[C@@H]2[C@H](C1=O)[C@H]1CC[C@@H]2O1` (some centres unmarked) [Compound T17, 4-[5-(4-chloro-phenyl)-2-ethyl-thiophen-3-yl]-10-oxa-tricyclo[5.2.1.0*2,6*]decane-3,5-dione], for which the pest or weed control at 1000 g/ha in experiment [1] was 100%; in experiment [2], 70%; in the experiment on Avena fatua (AVEFA) [3], 100%; in [4], 100%; with Setaria faberi (SETFA) [5], 100%.

For `Cc1sc(-c2cc(C(F)(F)F)n(C)n2)cc1C1C(=O)[C@@H]2[C@H](C1=O)[C@H]1CC[C@@H]2O1` (some centres unmarked) [Compound T18], the pest or weed control at 1000 g/ha is 20% in experiment [1]; 0% in experiment [2]; 0% with Avena fatua (AVEFA) [3]; 20% in [4]; 40% in the experiment with Setaria faberi (SETFA) [5].

Turning to `COC(=O)c1ccc(-c2cc(C3C(=O)[C@@H]4[C@H](C3=O)[C@H]3CC[C@@H]4O3)c(C)s2)cc1` (some centres unmarked) [Compound T19], the pest or weed control at 1000 g/ha in experiment [1] is 10%; in [2] it was 20%; in the experiment with Avena fatua (AVEFA) [3], 0%; in experiment [4], 0%; in the experiment with Setaria faberi (SETFA) [5], 30%.

As to `Cc1[se]c(-c2ccc(Cl)cc2)nc1C1C(=O)[C@@H]2[C@H](C1=O)[C@H]1CC[C@@H]2O1` (some centres unmarked) [Compound T34, 4-[2-(4-chloro-phenyl)-5-methyl-selenazol-4-yl]-10-oxa-tricyclo[5.2.1.0*2,6*]decane-3,5-dione], the pest or weed control at 250 g/ha in experiment [6] turned out to be 40%; in experiment [7] it was 0%; in the experiment with Avena fatua (AVEFA) [8], 20%; in [9], 70%; in the experiment on Setaria faberi (SETFA) [10], 90%.

Values taken from patent publication US8530667B2, “Herbicides” (Syngenta Limited, priority 2007, dated 2013).
